How the values were obtained:
[1] = in vivo; cited from earlier work
[2] = test system: insulin-naïve participants with T2DM; conditions: human, in vivo
Description: (§1) This phase 3a, 26-week, randomized, controlled, open-label, multinational, treat-to-target, non-inferiority trial compared the efficacy and safety of IDeg U-200 (i.e. 200 U/mL) and IGlar (100 U/mL) both administered OD in combination with metformin (met) ±DPP-4 inhibitor in insulin-naïve participants with T2DM previously treated with oral antidiabetic drugs OAD(s), who qualified for intensification of treatment. The trial was open-label because the pen devices used to administer the basal insulins were distinctively different and blinding was, therefore, impossible.
(§2) Using the interactive voice/web response system, eligible participants were randomized 1:1 to either once-daily IDeg U-200 (IDeg 200 U/mL, 3 mL FlexTouch®, Novo Nordisk, Bagsvård, Denmark) or once-daily IGlar (Lantus® 100 U/mL, 3 mL SoloStar® Sanofi Aventis U.S. LLC) and continued metformin ±DPP-4 inhibitor treatment. Trial participants were instructed to continue the same total daily dose of metformin and DPP-4 inhibitor treatment as before the start of the trial.
(§3) Insulin degludec was administered once-daily with the main evening meal and, consistent with its product labelling, IGlar was administered once-daily (OD) at the same time each day. Either treatment was injected subcutaneously in the thigh, upper arm or abdomen. The starting dose for each was 10 U, and during the treatment period, the insulin dose was systematically titrated using a treat-to-target approach striving for a pre-breakfast self-measured plasma glucose (SMPG) level of 4.0-4.9 mmol/L (71-89 mg/dL). Both IDeg and IGlar were similarly titrated once weekly in 2 U increments. The treatment period was 26 weeks and doses were individually titrated in an effort to achieve the same glucose targets with both treatments.
The primary endpoint for this study was change in HbA1c (%) from baseline after 26 weeks of treatment. Secondary confirmatory endpoints tested were number of treatment-emergent confirmed hypoglycaemic episodes, change from baseline in central laboratory-measured fasting plasma glucose (FPG), within subject variability as measured by coefficient of variation (%), and frequency of participants achieving HbA1c<7% without hypoglycaemic episodes. […]
Treatment difference in change from baseline in HbA1c after 26 weeks was analyzed using an Analysis of Variance (ANOVA) model with treatment, antidiabetic treatment at screening, sex and region (Europe, North America, or South Africa) as fixed factors, and age and baseline HbA1c as covariates. […] The number of treatment-emergent confirmed hypoglycaemic episodes was analyzed using a negative binomial regression model including treatment, antidiabetic therapy at screening, sex and region as fixed factors, and age as covariate. […]

[3] = test system: insulin-naïve participants with T2DM; assay: Clinical Trial 1 (26-week, treat-to-target): glycaemic control (HbA1c, FPG), IDeg U-200 vs IGlar; format: in vivo, human; conditions: whole population
Description: as §1
Participants who were insulin-naïve adults with T2DM for at least 6 months, HbA1, 7-10% (inclusive), BMI s 45 kg/m^2, and previously treated with metformin with or without additional OADs for at least 3 months were eligible to participate in the study.
as §2, §3
The primary endpoint for this study was change in HbA1c (%) from baseline after 26 weeks of treatment. Secondary confirmatory endpoints tested were number of treatment-emergent confirmed hypoglycaemic episodes, change from baseline in central laboratory-measured fasting plasma glucose (FPG), within subject variability as measured by coefficient of variation (%), and frequency of participants achieving HbA1c<7% without hypoglycaemic episodes. The supportive secondary endpoints included 9-point SMPG profiles, frequency of participants achieving HbA1c<7%, and Health-Related Quality of Life (HRQoL; Short Form 36 [SF-36 v.2] questionnaire) scores. The safety assessments were adverse events, hypoglycaemic episodes, insulin dose, body weight, physical examination, vital signs, fundoscopy, electrocardiogram (ECG) and laboratory tests (including antibodies). Confirmed hypoglycaemic episodes were defined as episodes with a PG value of <3.1 mmol/L (56 mg/dL) and severe episodes requiring assistance.^7 Hypoglycaemic episodes occurring between 00:01 h and 05:59 h (inclusive) were classified as nocturnal.
Analyses of all efficacy endpoints were based on the full analysis set (FAS) which included all randomized participants. The safety analysis set included all participants who received at least one dose of the investigational product or the comparator. Missing values were imputed using the last observation carried forward (LOCF) method.
The primary objective of this trial was to confirm the non-inferiority of IDeg U-200 OD to IGlar OD as assessed by change in HbA1c from baseline after 26 weeks of treatment. Non-inferiority was confirmed if the upper limit of the 95% confidence interval (Cl) for the treatment difference was 50.4%. […]

For “NεB29-(Nα—(HOOC(CH2)14CO)-γ-Glu)des(B30)-human insulin [insulin degludec]”, the duration of action [1] is given as “greater than 42 hours”, the “%: Percentage of subjects experiencing at least one episode” value [2] is given as 6.1% and the “ERR IDeg/IGlar, nocturnal confirmed hypoglycaemia” value [2] is given as 0.64. For the same substance, the “estimated rate ratio (ERR) IDeg/IGlar, confirmed hypoglycaemia” value [2] was 0.86, the “rate of nocturnal confirmed hypoglycaemic episodes” value [2] was 0.18 episodes/patient-year and the “non-inferiority to IGlar in change in HbA1c from baseline” value ([3]; 26 weeks) was “non-inferiority”. For the same substance, the “estimated treatment difference (ETD) IDeg-IGlar in change in HbA1c” value ([3]; 26 weeks, 95% CI −0.11, 0.19) was 0.04, the “ETD in FPG (IDeg vs IGlar)” value ([3]; 26 weeks, 95% CI −0.78, −0.06) was −0.42 and the “Central laboratory-measured FPG decrease” value ([3]; after 26 weeks) was 4.0 mmol/L. The “Central laboratory-measured FPG reached” value ([3]; after 26 weeks) was 5.7 mmol/L and the “FPG reduction compared with IGlar” value ([3]; after 26 weeks) was “statistically significantly greater FPG reduction”.
